# US20160220569A1, “CDK4/6 Inhibitor Dosage Formulations For The Protection Of Hematopoietic Stem And Progenitor Cells During Chemotherapy” (G1 Therapeutics, Inc., priority 2015, published 2016)
# Where “and” joins values, the source holds several entries; their conditions need not be identical. Equal values may be shown once. Read-outs that look alike come from different tables or passages of the source.
# Assay: Topotecan PK following Compound 1 infusion
# Type: in vivo, human
# Settings: human, plasma, intravenous
# Procedure: Blood samples were obtained prior to dosing, at the end of the 30-minute infusion (EOI), and at 0.5, 1, 1.5, 2, 2.5, 4, 6, 8, and 24 hours after the end of infusion. Analysis of plasma concentration versus time data for calculation of standard pharmacokinetic (PK) parameters following intravenous infusion administration was conducted using Phoenix WinNonlin version 6.3 using a nominal infusion duration and scheduled blood sampling times. In Cohort 2 there were 3 subjects who received 1.25 mg/m^2 of topotecan once daily on Days 1 to 5. In Cohort 3 there were 4 subjects who received 0.75 mg/m^2 of topotecan once daily on Days 1 to 5.
structure (smiles),measurement,setting,value
"CC[C@@]1(O)C(=O)OCc2c1cc1n(c2=O)Cc2cc3c(CN(C)C)c(O)ccc3nc2-1.Cl [topotecan, (S)-10-[(dimethylamino)methyl]-4-ethyl-4,9-dihydroxy-1H-pyrano[3′,4′:6,7]indolizino[1,2-b]quinoline-3,14(4H,12H)-dione monohydrochloride]",Cmax,"Topotecan 0.75 mg/m^2 (Cohort 3) with Compound 1 200 mg/m^2, Day 1, Mean, read-out: Cmax",27.3 ng/mL
same,half-life,"Topotecan 0.75 mg/m^2 (Cohort 3) with Compound 1 200 mg/m^2, Day 1, Mean, read-out: t½ (converted)",4.33 h
same,AUC,"Topotecan 0.75 mg/m^2 (Cohort 3) with Compound 1 200 mg/m^2, Day 1, Median, read-out: AUC24.5",89.1 ng·h/mL
same,AUC(0-inf),"Topotecan 0.75 mg/m^2 (Cohort 3) with Compound 1 200 mg/m^2, Day 1, Median, read-out: AUCinf (converted)",90.8 ng·h/mL and 0.198 µM·h
same,AUC,"Topotecan 0.75 mg/m^2 (Cohort 3) with Compound 1 200 mg/m^2, Day 1, Median, read-out: AUCx5 (converted)",0.992 µM·h
same,Cmax,"Topotecan 0.75 mg/m^2 (Cohort 3) with Compound 1 200 mg/m^2, Day 1, Median, read-out: Cmax",26.4 ng/mL
same,half-life,"Topotecan 0.75 mg/m^2 (Cohort 3) with Compound 1 200 mg/m^2, Day 1, Median, read-out: t½ (converted)",4.3 h
same,AUC,"Topotecan 0.75 mg/m^2 (Cohort 3) with Compound 1 200 mg/m^2, Day 1, individual subjects, read-out: AUC24.5",83.5 ng·h/mL
same,AUC(0-inf),"Topotecan 0.75 mg/m^2 (Cohort 3) with Compound 1 200 mg/m^2, Day 1, individual subjects, read-out: AUCinf (converted)",84.8 ng·h/mL and 0.185 µM·h
same,AUC,"Topotecan 0.75 mg/m^2 (Cohort 3) with Compound 1 200 mg/m^2, Day 1, individual subjects, read-out: AUCx5 (converted)",0.927 µM·h
same,half-life,"Topotecan 0.75 mg/m^2 (Cohort 3) with Compound 1 200 mg/m^2, Day 1, individual subjects, read-out: t½ (converted)",4.32 h
same,AUC,"Topotecan 0.75 mg/m^2 (Cohort 3) with Compound 1 200 mg/m^2, Day 4, Mean, read-out: AUCτ (converted)",92.4 ng·h/mL and 0.202 µM·h
same,Cmax,"Topotecan 0.75 mg/m^2 (Cohort 3) with Compound 1 200 mg/m^2, Day 4, Mean, read-out: Cmax",24.5 ng/mL
same,half-life,"Topotecan 0.75 mg/m^2 (Cohort 3) with Compound 1 200 mg/m^2, Day 4, Mean, read-out: t½ (converted)",4.78 h
same,AUC,"Topotecan 0.75 mg/m^2 (Cohort 3) with Compound 1 200 mg/m^2, Day 4, Median, read-out: AUCτ (converted)",91.7 ng·h/mL and 0.2 µM·h
same,Cmax,"Topotecan 0.75 mg/m^2 (Cohort 3) with Compound 1 200 mg/m^2, Day 4, Median, read-out: Cmax",24.5 ng/mL
same,half-life,"Topotecan 0.75 mg/m^2 (Cohort 3) with Compound 1 200 mg/m^2, Day 4, Median, read-out: t½ (converted)",4.7 h
same,AUC,"Topotecan 0.75 mg/m^2 (Cohort 3) with Compound 1 200 mg/m^2, Day 4, individual subjects, read-out: AUCτ (converted)",83.7 ng·h/mL and 0.183 µM·h
same,Cmax,"Topotecan 0.75 mg/m^2 (Cohort 3) with Compound 1 200 mg/m^2, Day 4, individual subjects, read-out: Cmax",26.4 ng/mL
same,half-life,"Topotecan 0.75 mg/m^2 (Cohort 3) with Compound 1 200 mg/m^2, Day 4, individual subjects, read-out: t½ (converted)",4.63 h
same,AUC,"Topotecan 1.25 mg/m^2 (Cohort 2) with Compound 1 200 mg/m^2, Day 1, Mean, read-out: AUC24.5",175 ng·h/mL
same,AUC(0-inf),"Topotecan 1.25 mg/m^2 (Cohort 2) with Compound 1 200 mg/m^2, Day 1, Mean, read-out: AUCinf (converted)",180 ng·h/mL and 0.392 µM·h
same,AUC,"Topotecan 1.25 mg/m^2 (Cohort 2) with Compound 1 200 mg/m^2, Day 1, Mean, read-out: AUCx5 (converted)",1.97 µM·h
same,Cmax,"Topotecan 1.25 mg/m^2 (Cohort 2) with Compound 1 200 mg/m^2, Day 1, Mean, read-out: Cmax",63.7 ng/mL
same,half-life,"Topotecan 1.25 mg/m^2 (Cohort 2) with Compound 1 200 mg/m^2, Day 1, Mean, read-out: t½ (converted)",4.93 h
same,AUC,"Topotecan 1.25 mg/m^2 (Cohort 2) with Compound 1 200 mg/m^2, Day 1, Median, read-out: AUC24.5",159 ng·h/mL
same,AUC(0-inf),"Topotecan 1.25 mg/m^2 (Cohort 2) with Compound 1 200 mg/m^2, Day 1, Median, read-out: AUCinf (converted)",162 ng·h/mL and 0.355 µM·h
same,AUC,"Topotecan 1.25 mg/m^2 (Cohort 2) with Compound 1 200 mg/m^2, Day 1, Median, read-out: AUCx5 (converted)",1.77 µM·h
same,Cmax,"Topotecan 1.25 mg/m^2 (Cohort 2) with Compound 1 200 mg/m^2, Day 1, Median, read-out: Cmax",57.7 ng/mL
same,half-life,"Topotecan 1.25 mg/m^2 (Cohort 2) with Compound 1 200 mg/m^2, Day 1, Median, read-out: t½ (converted)",4.92 h
same,half-life,"Topotecan 1.25 mg/m^2 (Cohort 2) with Compound 1 200 mg/m^2, Day 1, individual subjects, read-out: t½ (converted)",4.78 h
same,AUC,"Topotecan 1.25 mg/m^2 (Cohort 2) with Compound 1 200 mg/m^2, Day 4, Mean, read-out: AUCτ (converted)",171 ng·h/mL and 0.375 µM·h
same,Cmax,"Topotecan 1.25 mg/m^2 (Cohort 2) with Compound 1 200 mg/m^2, Day 4, Mean, read-out: Cmax",59.6 ng/mL
same,AUC,"Topotecan 1.25 mg/m^2 (Cohort 2) with Compound 1 200 mg/m^2, Day 4, Median, read-out: AUCτ (converted)",158 ng·h/mL and 0.345 µM·h
same,Cmax,"Topotecan 1.25 mg/m^2 (Cohort 2) with Compound 1 200 mg/m^2, Day 4, Median, read-out: Cmax",41.8 ng/mL
same,half-life,"Topotecan 1.25 mg/m^2 (Cohort 2) with Compound 1 200 mg/m^2, Day 4, Median, read-out: t½ (converted)",5.39 h
same,AUC,"Topotecan 1.25 mg/m^2 (Cohort 2) with Compound 1 200 mg/m^2, Day 4, individual subjects, read-out: AUCτ (converted)",158 ng·h/mL and 0.345 µM·h
same,half-life,"Topotecan 1.25 mg/m^2 (Cohort 2) with Compound 1 200 mg/m^2, Day 4, individual subjects, read-out: t½ (converted)",5.39 h
same,AUC,"Topotecan […]^2 (Cohort 1) with Compound 1 200 mg/m^2, Day 1, Mean, read-out: AUC24.5",150 ng·h/mL
same,AUC,"Topotecan […]^2 (Cohort 1) with Compound 1 200 mg/m^2, Day 1, Mean, read-out: AUCx5 (converted)",1.66 µM·h
same,Cmax,"Topotecan […]^2 (Cohort 1) with Compound 1 200 mg/m^2, Day 1, Mean, read-out: Cmax",69.5 ng/mL
same,half-life,"Topotecan […]^2 (Cohort 1) with Compound 1 200 mg/m^2, Day 1, Mean, read-out: t½ (converted)",4.33 h
same,AUC,"Topotecan […]^2 (Cohort 1) with Compound 1 200 mg/m^2, Day 1, Median, read-out: AUC24.5",150 ng·h/mL
same,AUC,"Topotecan […]^2 (Cohort 1) with Compound 1 200 mg/m^2, Day 1, Median, read-out: AUCx5 (converted)",1.66 µM·h
same,Cmax,"Topotecan […]^2 (Cohort 1) with Compound 1 200 mg/m^2, Day 1, Median, read-out: Cmax",69.5 ng/mL
same,half-life,"Topotecan […]^2 (Cohort 1) with Compound 1 200 mg/m^2, Day 1, Median, read-out: t½ (converted)",4.33 h
same,AUC,"Topotecan […]^2 (Cohort 1) with Compound 1 200 mg/m^2, Day 1, individual subjects, read-out: AUC24.5",130 ng·h/mL
same,AUC,"Topotecan […]^2 (Cohort 1) with Compound 1 200 mg/m^2, Day 1, individual subjects, read-out: AUCx5 (converted)",1.44 µM·h
same,half-life,"Topotecan […]^2 (Cohort 1) with Compound 1 200 mg/m^2, Day 1, individual subjects, read-out: t½ (converted)",4.56 h
same,Cmax,"Topotecan […]^2 (Cohort 1) with Compound 1 200 mg/m^2, Day 4, Mean, read-out: Cmax",89.3 ng/mL
same,half-life,"Topotecan […]^2 (Cohort 1) with Compound 1 200 mg/m^2, Day 4, Mean, read-out: t½ (converted)",4.87 h
same,Cmax,"Topotecan […]^2 (Cohort 1) with Compound 1 200 mg/m^2, Day 4, Median, read-out: Cmax",89.3 ng/mL
same,half-life,"Topotecan […]^2 (Cohort 1) with Compound 1 200 mg/m^2, Day 4, Median, read-out: t½ (converted)",4.87 h
same,half-life,"Topotecan […]^2 (Cohort 1) with Compound 1 200 mg/m^2, Day 4, individual subjects, read-out: t½ (converted)",5.11 h
same,AUC(0-inf),"topotecan 0.75 mg/m^2 (Cohort 3) after Compound 1 200 mg/m^2, Day 1, mean, read-out: AUCinf averaged",94.4 ng·h/mL
same,Cmax,"topotecan 0.75 mg/m^2 (Cohort 3) after Compound 1 200 mg/m^2, Day 1, mean, read-out: Cmax averaged",27.3 ng/mL
same,half-life,"topotecan 0.75 mg/m^2 (Cohort 3) after Compound 1 200 mg/m^2, Day 1, mean, read-out: Half-lives averaged (converted)",4.33 h
same,Cmax,"topotecan 0.75 mg/m^2 (Cohort 3) after Compound 1 200 mg/m^2, Day 4, mean, read-out: Cmax averaged",24.5 ng/mL
same,AUC(0-inf),"topotecan 1.25 mg/m^2 (Cohort 2) after Compound 1 200 mg/m^2, Day 1, mean, read-out: AUCinf averaged",180 ng·h/mL
same,Cmax,"topotecan 1.25 mg/m^2 (Cohort 2) after Compound 1 200 mg/m^2, Day 1, mean, read-out: Cmax averaged",63.7 ng/mL
same,half-life,"topotecan 1.25 mg/m^2 (Cohort 2) after Compound 1 200 mg/m^2, Day 1, mean, read-out: Half-lives averaged (converted)",4.93 h
same,Cmax,"topotecan 1.25 mg/m^2 (Cohort 2) after Compound 1 200 mg/m^2, Day 4, mean, read-out: Cmax averaged",59.6 ng/mL
same,AUC(0-inf),"topotecan […]^2 (Cohort 1) after Compound 1 200 mg/m^2, Day 1, mean, read-out: AUCinf averaged",152 ng·h/mL
same,Cmax,"topotecan […]^2 (Cohort 1) after Compound 1 200 mg/m^2, Day 1, mean, read-out: Cmax averaged",69.5 ng/mL
same,half-life,"topotecan […]^2 (Cohort 1) after Compound 1 200 mg/m^2, Day 1, mean, read-out: Half-lives averaged (converted)",4.33 h
same,Cmax,"topotecan […]^2 (Cohort 1) after Compound 1 200 mg/m^2, Day 4, mean, read-out: Cmax averaged",89.3 ng/mL
same,half-life,read-out: t½ (converted),5.45 h
